Laboratory results from US20250368666A1, “INDAZOLE COMPOUNDS” (TYRA BIOSCIENCES, INC., priority 2022, published 2025).
pIC50: −log10 of the molar value.

Experiments:
[1] = tested on: HuH7 cell line (FGF19 amplification); assay: Cancer cell line cell viability assay (Cell Titer-Glo), 120 hr; type: cell-based; conditions: Homo sapiens, Huh-7
Method in brief: (§1)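 RPMI1640/10% FBS for RT112/84 and MDA-MB-453; IMDM/20% FBS for KG-1; IMDM/10% FBS for HuH7. Cells plated overnight, dosed from 3 μM in 4-fold, 9-point series, incubated at 37° C, then lysed with Cell Titer-Glo 2.0; IC50 by sigmoidal fit.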

FGFR3 = target: T1, FGFR3 (Homo sapiens, UniProt P22607); assay: Kinase binding assay (kinase-tagged T7 phage, affinity beads, qPCR), Kd; conditions: read-out: FGFR3 (Kd nM)
T1 construct: made in house; host or cells: E. coli (BL21-derived), T7 phage
T1 sequence (P22607 23-806): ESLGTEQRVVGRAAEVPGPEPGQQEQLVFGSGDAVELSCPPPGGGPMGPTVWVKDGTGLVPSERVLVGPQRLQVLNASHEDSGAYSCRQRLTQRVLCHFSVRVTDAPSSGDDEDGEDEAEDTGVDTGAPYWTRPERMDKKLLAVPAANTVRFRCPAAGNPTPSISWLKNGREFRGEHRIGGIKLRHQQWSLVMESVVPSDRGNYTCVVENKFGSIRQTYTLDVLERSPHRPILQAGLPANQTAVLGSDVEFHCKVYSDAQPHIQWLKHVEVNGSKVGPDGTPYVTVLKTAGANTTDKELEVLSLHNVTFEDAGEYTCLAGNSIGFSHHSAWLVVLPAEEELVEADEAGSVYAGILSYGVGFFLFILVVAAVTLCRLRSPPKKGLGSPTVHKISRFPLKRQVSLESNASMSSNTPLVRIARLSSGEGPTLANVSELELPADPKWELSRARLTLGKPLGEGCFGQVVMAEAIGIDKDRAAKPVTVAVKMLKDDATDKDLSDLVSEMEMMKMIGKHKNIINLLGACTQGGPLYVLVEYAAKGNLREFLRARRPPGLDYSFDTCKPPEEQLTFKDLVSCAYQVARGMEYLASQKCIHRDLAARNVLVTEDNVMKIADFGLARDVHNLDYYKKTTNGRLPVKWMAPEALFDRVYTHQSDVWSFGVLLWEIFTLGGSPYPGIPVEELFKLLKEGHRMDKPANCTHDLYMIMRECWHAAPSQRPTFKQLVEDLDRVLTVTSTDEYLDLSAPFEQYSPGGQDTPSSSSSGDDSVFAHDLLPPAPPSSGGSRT
Method in brief: (§2)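 Competition binding; kinase-tagged T7 phage lysate vs immobilised biotinylated ligand on streptavidin beads, 0.9% DMSO final. 11-pt 3-fold dilutions, 3 DMSO controls. qPCR of eluted kinase; Kd by Hill fit, slope −1.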

FGFR2 = target: T2, FGFR2 (Homo sapiens, UniProt P21802); assay: as above; conditions: read-out: FGFR2 (Kd nM)
T2 construct: made in house; host or cells: E. coli (BL21-derived), T7 phage
T2 sequence (P21802 22-821): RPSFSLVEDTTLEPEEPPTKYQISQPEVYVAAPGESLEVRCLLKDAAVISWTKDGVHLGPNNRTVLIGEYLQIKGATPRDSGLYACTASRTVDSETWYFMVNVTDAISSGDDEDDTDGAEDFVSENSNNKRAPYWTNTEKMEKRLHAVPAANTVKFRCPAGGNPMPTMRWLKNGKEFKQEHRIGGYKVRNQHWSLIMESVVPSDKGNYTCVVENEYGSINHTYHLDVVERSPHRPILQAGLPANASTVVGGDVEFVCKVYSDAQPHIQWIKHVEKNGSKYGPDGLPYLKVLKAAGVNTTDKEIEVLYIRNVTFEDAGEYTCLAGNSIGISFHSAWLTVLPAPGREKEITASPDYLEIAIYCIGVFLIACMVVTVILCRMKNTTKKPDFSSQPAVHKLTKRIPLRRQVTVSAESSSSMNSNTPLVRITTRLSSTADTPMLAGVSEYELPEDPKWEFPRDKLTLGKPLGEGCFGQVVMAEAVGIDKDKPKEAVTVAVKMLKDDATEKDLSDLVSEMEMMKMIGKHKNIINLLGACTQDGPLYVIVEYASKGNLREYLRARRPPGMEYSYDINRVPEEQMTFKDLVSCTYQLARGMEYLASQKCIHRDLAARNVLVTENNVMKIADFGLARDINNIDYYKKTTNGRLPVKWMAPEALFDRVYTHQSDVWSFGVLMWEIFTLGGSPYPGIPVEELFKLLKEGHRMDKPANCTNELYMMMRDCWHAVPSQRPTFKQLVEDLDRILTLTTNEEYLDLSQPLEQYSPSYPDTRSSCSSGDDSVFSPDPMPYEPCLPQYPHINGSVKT
Method in brief: as §2

FGFR1 = target: T3, FGFR1 (Homo sapiens, UniProt P11362); assay: as above; conditions: read-out: FGFR1 (Kd nM)
T3 construct: made in house; host or cells: E. coli (BL21-derived), T7 phage
T3 sequence (P11362 22-822): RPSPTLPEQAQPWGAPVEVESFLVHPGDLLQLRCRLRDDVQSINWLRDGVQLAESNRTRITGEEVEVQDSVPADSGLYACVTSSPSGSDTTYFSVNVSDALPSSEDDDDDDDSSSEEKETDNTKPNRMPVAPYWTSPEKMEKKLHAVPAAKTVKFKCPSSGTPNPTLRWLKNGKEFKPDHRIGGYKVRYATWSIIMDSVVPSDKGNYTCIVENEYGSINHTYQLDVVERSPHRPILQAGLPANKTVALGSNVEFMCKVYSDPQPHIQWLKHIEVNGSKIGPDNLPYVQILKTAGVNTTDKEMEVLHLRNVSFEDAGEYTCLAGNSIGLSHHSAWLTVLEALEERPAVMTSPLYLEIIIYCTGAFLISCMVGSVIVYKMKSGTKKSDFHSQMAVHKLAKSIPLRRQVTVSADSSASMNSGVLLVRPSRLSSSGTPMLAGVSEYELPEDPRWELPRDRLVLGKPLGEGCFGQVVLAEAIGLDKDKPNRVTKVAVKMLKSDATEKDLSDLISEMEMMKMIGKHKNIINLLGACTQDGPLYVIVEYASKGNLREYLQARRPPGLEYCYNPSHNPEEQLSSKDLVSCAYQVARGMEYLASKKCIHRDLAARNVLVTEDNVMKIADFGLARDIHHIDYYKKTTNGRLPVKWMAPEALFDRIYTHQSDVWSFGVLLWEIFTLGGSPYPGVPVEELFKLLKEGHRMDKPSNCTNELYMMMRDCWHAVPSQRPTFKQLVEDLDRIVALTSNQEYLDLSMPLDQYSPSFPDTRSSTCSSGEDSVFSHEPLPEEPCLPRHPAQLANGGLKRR
Method in brief: as §2

FGFR4 = target: T4, FGFR4 (Homo sapiens, UniProt P22455); assay: as above; conditions: read-out: FGFR4 (Kd nM)
T4 construct: made in house; host or cells: E. coli (BL21-derived), T7 phage
T4 sequence (P22455 22-802): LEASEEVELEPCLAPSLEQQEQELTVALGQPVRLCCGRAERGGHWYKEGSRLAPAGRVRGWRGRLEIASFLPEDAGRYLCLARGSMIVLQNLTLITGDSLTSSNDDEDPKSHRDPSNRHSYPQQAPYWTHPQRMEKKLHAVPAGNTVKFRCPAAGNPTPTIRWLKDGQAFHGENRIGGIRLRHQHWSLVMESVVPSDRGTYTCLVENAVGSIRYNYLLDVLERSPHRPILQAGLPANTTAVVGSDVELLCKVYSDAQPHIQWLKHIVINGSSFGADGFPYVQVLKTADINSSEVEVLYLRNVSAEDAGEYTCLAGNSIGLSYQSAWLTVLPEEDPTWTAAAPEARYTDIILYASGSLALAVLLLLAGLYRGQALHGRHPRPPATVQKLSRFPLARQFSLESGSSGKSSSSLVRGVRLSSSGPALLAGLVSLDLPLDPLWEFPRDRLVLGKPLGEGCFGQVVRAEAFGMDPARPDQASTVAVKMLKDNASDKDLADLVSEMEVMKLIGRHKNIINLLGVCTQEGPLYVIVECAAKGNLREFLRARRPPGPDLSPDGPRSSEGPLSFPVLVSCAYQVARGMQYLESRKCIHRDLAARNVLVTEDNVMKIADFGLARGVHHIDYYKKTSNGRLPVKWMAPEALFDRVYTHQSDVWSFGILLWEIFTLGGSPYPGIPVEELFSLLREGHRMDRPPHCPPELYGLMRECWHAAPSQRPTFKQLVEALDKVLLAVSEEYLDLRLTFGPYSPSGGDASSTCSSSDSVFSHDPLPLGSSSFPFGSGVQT
Method in brief: as §2

FGFR3 (V555M) = target: T5, FGFR3 (V555M) (Homo sapiens, UniProt P22607, V555M); assay: as above; conditions: V555M mutant; read-out: FGFR3 (V555M) (Kd nM)
T5 construct: made in house; host or cells: E. coli (BL21-derived), T7 phage
T5 sequence (P22607 23-806 V555M): as the sequence (P22607 23-806) above, with V533M counted along it
Method in brief: as §2

[2] = tested on: RT112/84 cell line (FGFR3-fusion); assay: Cancer cell line cell viability assay (Cell Titer-Glo), 72 hr; type: cell-based; conditions: Homo sapiens, RT112/84, RT112/84 cell line (FGFR3-fusion)
Method in brief: as §1

[3] = tested on: KG-1 cell line (FGFR 1-fusion); assay: as above; type: cell-based; conditions: Homo sapiens, KG-1, KG-1 cell line (FGFR1-fusion)
Method in brief: as §1

[4] = tested on: KATO-III cell line (FGFR2 amplification); assay: as above; type: cell-based; conditions: Homo sapiens, KATO III
Method in brief: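 Following overnight attachment, each line receives compound in triplicate across nine 4-fold dilutions starting at 3 μM, with DMSO backfill for equal solvent. Luminescence after Cell Titer-Glo 2.0 addition gives percent viability versus DMSO control, fitted by 4-parameter logistic for IC50.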

[5] = tested on: MDA-MB-453 cell line (FGFR4-Y367C); assay: Cancer cell line cell viability assay (Cell Titer-Glo), 120 hr; type: cell-based; conditions: Homo sapiens
Method in brief: as §1

Row | Structure (SMILES) | pIC50 [1] | Kd (FGFR3) [nM] | Kd (FGFR2) [nM] | Kd (FGFR1) [nM] | Kd (FGFR4) [nM] | Kd (FGFR3 (V555M)) [nM] | pIC50 [2] | pIC50 [3] | pIC50 [4] | pIC50 [5]
1 | COc1cc2[nH]nc(-c3cnc(N4CC(C)(N)C4)c(C#N)c3)c2cc1O[C@H](C)c1c(Cl)cncc1Cl [Example 143, 2-(3-amino-3-methyl-azetidin-1-yl)-5-[5-[(1R)-1-(3,5-dichloro-4-pyridyl)ethoxy]-6-methoxy-1H-indazol-3-yl]pyridine-3-carbonitrile] | 7.30 to 10.00 | 1 to 50 | 1 to 50 | 1 to 50 | 1 to 50 | 1 to 50 | 7.30 to 10.00 | 6.70 to 7.30 | 6.70 to 7.30 | 
2 | CC[C@H](C)NC1(C)CN(c2ncc(-c3n[nH]c4cc(OC)c(O[C@H](C)c5c(Cl)cncc5Cl)cc34)cc2C#N)C1 [Example 144, 5-[5-[(1R)-1-(3,5-dichloro-4-pyridyl)ethoxy]-6-methoxy-1H-indazol-3-yl]-2-[3-methyl-3-[[(1S)-1-methylpropyl]amino]aze-tidin-1-yl]pyridine-3-carbonitrile] | 7.30 to 10.00 | 1 to 50 | 1 to 50 | 1 to 50 | 1 to 50 | 1 to 50 | 7.30 to 10.00 | 6.70 to 7.30 | 6.70 to 7.30 | 
3 | CC[C@@H](C)NC1(C)CN(c2ncc(-c3n[nH]c4cc(OC)c(O[C@H](C)c5c(Cl)cncc5Cl)cc34)cc2C#N)C1 [Example 145, 5-[5-[(1R)-1-(3,5-dichloro-4-pyridyl)ethoxy]-6-methoxy-1H-indazol-3-yl]-2-[3-methyl-3-[[(1R)-1-methylpropyl]amino]aze-tidin-1-yl]pyridine-3-carbonitrile] | 7.30 to 10.00 | 1 to 50 | 1 to 50 | 1 to 50 | 1 to 50 | 1 to 50 | 7.30 to 10.00 | 6.70 to 7.30 | 6.70 to 7.30 | 
4 | CCCNC1(C)CN(c2ncc(-c3n[nH]c4cc(OC)c(O[C@H](C)c5c(Cl)cncc5Cl)cc34)cc2C#N)C1 [Example 146, 5-[5-[(1R)-1-(3,5-dichloro-4-pyridyl)ethoxy]-6-methoxy-1H-indazol-3-yl]-2-[3-methyl-3-(propylamino)azetidin-1-yl]pyridine-3-carbonitrile] | 7.30 to 10.00 | 1 to 50 | 1 to 50 | 1 to 50 | 1 to 50 | 1 to 50 | 7.30 to 10.00 | 6.70 to 7.30 | 6.70 to 7.30 | 
5 | C=CCNC1(C)CN(c2ncc(-c3n[nH]c4cc(OC)c(O[C@H](C)c5c(Cl)cncc5Cl)cc34)cc2C#N)C1 [Example 147, (R)-2-(3-(allylamino)-3-methylazetidin-1-yl)-5-(5-(1-(3,5-dichloropyridin-4-yl)ethoxy)-6-methoxy-1H-indazol-3-yl)nicotinonitrile] | 7.30 to 10.00 | 1 to 50 | 1 to 50 | 1 to 50 | 1 to 50 | 1 to 50 | 7.30 to 10.00 | 6.70 to 7.30 | 6.70 to 7.30 | 
6 | CC(C)CNC1(C)CN(c2ccc(-c3n[nH]c4ccc(O[C@H](C)c5c(Cl)cncc5Cl)cc34)nn2)C1 [Example 242, (R)-1-(6-(5-(1-(3,5-dichloropyridin-4-yl)ethoxy)-1H-indazol-3-yl)pyridazin-3-yl)-N-isobutyl-3-methylazetidin-3-amine] |  | 1 to 50 |  | 1 to 50 |  |  | 7.30 to 10.00 | 6.70 to 7.30 | 6.70 to 7.30 | 6.00 to 6.70
7 | C[C@@H](Oc1ccc2[nH]nc(-c3cnc(N4CC(C)(NCC5CC5)C4)cc3F)c2c1)c1c(Cl)cncc1Cl [Example 243, (R)—N-(cyclopropylmethyl)-1-(5-(5-(1-(3,5-dichloropyridin-4-yl)ethoxy)-1H-indazol-3-yl)-4-fluoropyridin-2-yl)-3-methylazetidin-3-amine] |  | 1 to 50 |  | 1 to 50 |  |  | 7.30 to 10.00 | 6.00 to 6.70 | 6.00 to 6.70 | 6.70 to 7.30
8 | C[C@@H](Oc1ccc2[nH]nc(-c3cnc(N4CC(C)(N5CCS(=O)(=O)CC5)C4)c(C#N)c3)c2c1)c1c(Cl)cncc1Cl [Example 321, (R)-5-(5-(1-(3,5-dichloropyridin-4-yl)ethoxy)-1H-indazol-3-yl)-2-(3-(1,1-dioxidothio-morpholino)-3-methylazetidin-1-yl)nicotinonitrile] | 7.30 to 10.00 | 1 to 50 | 1 to 50 | 1 to 50 | 1 to 50 | 1 to 50 | 6.70 to 7.30 | 6.00 to 6.70 | 6.00 to 6.70 | 
9 | C[C@@H](Oc1ccc2[nH]nc(-c3cnc(N4CC(C)(NCCS(C)(=O)=O)C4)c(C#N)c3)c2c1)c1c(Cl)cncc1Cl [Example 325, 5-[5-[(1R)-1-(3,5-dichloro-4-pyridyl)ethoxy]-1H-indazol-3-yl]-2-[3-methyl-3-(2-methylsulfonylethyl-amino)azetidin-1-yl]pyridine-3-carbonitrile] | 7.30 to 10.00 | 1 to 50 | 1 to 50 | 1 to 50 | 1 to 50 | 1 to 50 | 6.70 to 7.30 | 6.00 to 6.70 | 6.70 to 7.30 | 
10 | C[C@@H](Oc1ccc2[nH]nc(-c3cnc(N4CC(C)(N5CCP(C)(=O)CC5)C4)c(C#N)c3)c2c1)c1c(Cl)cncc1Cl [Example 328, (R)-5-(5-(1-(3,5-dichloropyridin-4-yl)ethoxy)-1H-indazol-3-yl)-2-(3-methyl-3-(4-methyl-4-oxido-1,4-azaphosphinan-1-yl)azetidin-1-yl)nicotinonitrile] | 6.70 to 7.30 | 1 to 50 | 1 to 50 | 1 to 50 | 1 to 50 | 1 to 50 | 6.70 to 7.30 | < 6.00 | 6.00 to 6.70 | 
11 | COc1cc2[nH]nc(-c3cnc(N4CC(C)(NCP(C)(C)=O)C4)c(C#N)c3)c2cc1O[C@H](C)c1c(Cl)cncc1Cl [Example 329, 5-[5-[(1R)-1-(3,5-dichloro-4-pyridyl)ethoxy]-6-methoxy-1H-indazol-3-yl]-2-[3-(dimethyl-phosphoryl-methylamino)-3-methyl-azetidin-1-yl]pyridine-3-carbonitrile] | 7.30 to 10.00 | 1 to 50 | 1 to 50 | 1 to 50 | 1 to 50 | 1 to 50 | 6.70 to 7.30 | < 6.00 | 6.00 to 6.70 | 
12 | COc1cc2[nH]nc(-c3cnc(N4CC(C)(N5CCS(=O)(=O)CC5)C4)c(C#N)c3)c2cc1O[C@H](C)c1c(Cl)cncc1Cl [Example 334, (R)-5-(5-(1-(3,5-dichloropyridin-4-yl)ethoxy)-6-methoxy-1H-indazol-3-yl)-2-(3-(1,1-dioxidothio-morpholino)-3-methylazetidin-1-yl)nicotinonitrile] | 7.30 to 10.00 | 1 to 50 | 1 to 50 | 1 to 50 | 1 to 50 | 1 to 50 | 7.30 to 10.00 | 6.00 to 6.70 | 6.70 to 7.30 | 
13 | COc1cc2[nH]nc(-c3cnc(N4CC(C)(N5CC6CC(C5)O6)C4)c(C#N)c3)c2cc1O[C@H](C)c1c(Cl)cncc1Cl [Example 337, 2-(3-(6-oxa-3-aza-bicyclo[3.1.1]hep-tan-3-yl)-3-methylazetidin-1-yl)-5-(5-((R)-1-(3,5-dichloropyridin-4-yl)ethoxy)-6-methoxy-1H-indazol-3-yl)nicotinonitrile] | 7.30 to 10.00 | 1 to 50 | 1 to 50 | 1 to 50 | 1 to 50 | 1 to 50 | 7.30 to 10.00 | 6.70 to 7.30 | 6.70 to 7.30 | 
14 | COc1cc2[nH]nc(-c3cnc(N4CC(C)(N5C[C@H]6C[C@@H]5CO6)C4)c(C#N)c3)c2cc1O[C@H](C)c1c(Cl)cncc1Cl [Example 338, 2-(3-((1R,4R)-2-oxa-5-aza-bicyclo[2.2.1]hep-tan-5-yl)-3-methylazetidin-1-yl)-5-(5-((R)-1-(3,5-dichloropyridin-4-yl)ethoxy)-6-methoxy-1H-indazol-3-yl)nicotinonitrile] | 7.30 to 10.00 | 1 to 50 | 1 to 50 | 1 to 50 | 1 to 50 | 1 to 50 | 7.30 to 10.00 | 6.70 to 7.30 | 6.70 to 7.30 | 
15 | COc1cc2[nH]nc(-c3cnc(N4CC(C)(NCC5CC5)C4)nc3)c2cc1O[C@H](C)c1c(Cl)cncc1Cl [Example 339, (R)-N-(cyclopropyl-methyl)-1-(5-(5-(1-(3,5-dichloropyridin-4-yl)ethoxy)-6-methoxy-1H-indazol-3-yl)pyrimidin-2-yl)-3-methylazetidin-3-amine] | 7.30 to 10.00 | 1 to 50 | 1 to 50 | 1 to 50 | 1 to 50 | 1 to 50 | 7.30 to 10.00 | 7.30 to 10.00 | 7.30 to 10.00 | 
